Measured values: ChEMBL document CHEMBL1201862, “PubChem BioAssay data set” (2004)
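Growth conditions: 96-well plates. Treatment: test compound, 48 hours, 5 concentrations. Analysis: linear interpolation between bracketing concentrations; unreached endpoints set to highest concentration. GI50 = concentration required for 50% inhibition of growth.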 Active and inactive are the calls of the source. No stated cut-off is given here; in the data, active = GI50 up to about 1.1 µM and inactive = higher.

What was measured:
Assay in all cases: growth of human tumour cells (NCI), 48 h
[1] = tested on: MDA-MB-435
[2] = tested on: MDA-MB-231
[3] = tested on: OVCAR-3
[4] = tested on: NCI-H23
[5] = tested on: SK-MEL-2
[6] = tested on: RXF 393
[7] = tested on: COLO 205
[8] = tested on: SW-620
[9] = tested on: NCI-H460
[10] = tested on: PC-3
[11] = tested on: KM12
[12] = tested on: MOLT-4
[13] = tested on: SF-295
[14] = tested on: DU-145
[15] = tested on: EKVX
[16] = tested on: TK-10
[17] = tested on: CCRF-CEM
[18] = tested on: OVCAR-5
[19] = tested on: T47D
[20] = tested on: SF-268
[21] = tested on: Hs-578T
[22] = tested on: SNB-19
[23] = tested on: A498
[24] = tested on: HCT-116
[25] = tested on: SR
[26] = tested on: MDA-N
[27] = tested on: U-251
[28] = tested on: IGROV-1
[29] = tested on: OVCAR-4
[30] = tested on: UACC-62
[31] = tested on: Malme-3M
[32] = tested on: UACC-257
[33] = tested on: HT-29
[34] = tested on: SNB-75
[35] = tested on: 786-0
[36] = tested on: BT-549
[37] = tested on: OVCAR-8
[38] = tested on: ACHN
[39] = tested on: HCT-15
[40] = tested on: SK-MEL-5
[41] = tested on: CAKI-1
[42] = tested on: A549
[43] = tested on: HOP-92
[44] = tested on: SF-539
[45] = tested on: RPMI-8226
[46] = tested on: MCF7
[47] = tested on: SK-OV-3
[48] = tested on: HCC 2998
[49] = tested on: SN12C
[50] = tested on: LOX IMVI
[51] = tested on: M14
[52] = tested on: NCI-H226
[53] = tested on: K562
[54] = tested on: HOP-62
[55] = tested on: SK-MEL-28
[56] = tested on: NCI-H522
[57] = tested on: NCI/ADR-RES
[58] = tested on: UO-31
[59] = tested on: HL-60

Compound: O=[N+]([O-])C(=C(N1CCCCC1)N1CCCCC1)/C(Cl)=C(\Cl)[N+](=O)[O-]
- GI50 [1]: 5.01 µM (inactive)
- GI50 [2]: 7.59 µM (inactive)
- GI50 [3]: 3.79 µM (inactive)
- GI50 [4]: 5.6 µM (inactive)
- GI50 [5]: 16.9 µM (inactive)
- GI50 [6]: 1.31 µM (inactive)
- GI50 [7]: 5.01 µM (inactive)
- GI50 [8]: 3.36 µM (inactive)
- GI50 [9]: 22.5 µM (inactive)
- GI50 [10]: 14.3 µM (inactive)
- GI50 [11]: 19.4 µM (inactive)
- GI50 [12]: 1.14 µM (inactive)
- GI50 [13]: 21.5 µM (inactive)
- GI50 [14]: 2.88 µM (inactive)
- GI50 [15]: 13 µM (inactive)
- GI50 [16]: 5.41 µM (inactive)
- GI50 [17]: 5.11 µM (inactive)
- GI50 [18]: 17.9 µM (inactive)
- GI50 [19]: 1.84 µM (inactive)
- GI50 [20]: 12.1 µM (inactive)
- GI50 [21]: 4.86 µM (inactive)
- GI50 [22]: 19.9 µM (inactive)
- GI50 [23]: 17.9 µM (inactive)
- GI50 [24]: 2.61 µM (inactive)
- GI50 [25]: 2.19 µM (inactive)
- GI50 [26]: 5.94 µM (inactive)
- GI50 [27]: 18.7 µM (inactive)
- GI50 [28]: 1.72 µM (inactive)
- GI50 [29]: 8.2 µM (inactive)
- GI50 [30]: 15 µM (inactive)
- GI50 [31]: 2.37 µM (inactive)
- GI50 [32]: 7.71 µM (inactive)
- GI50 [33]: 4.74 µM (inactive)
- GI50 [34]: 17.5 µM (inactive)
- GI50 [35]: 3.42 µM (inactive)
- GI50 [36]: 6.95 µM (inactive)
- GI50 [37]: 10.9 µM (inactive)
- GI50 [38]: 3.27 µM (inactive)
- GI50 [39]: 2.17 µM
- GI50 [40]: 5.69 µM (inactive)
- GI50 [41]: 1.19 µM (inactive)
- GI50 [42]: 19.5 µM (inactive)
- GI50 [43]: 2.74 µM (inactive)
- GI50 [44]: 9.1 µM (inactive)
- GI50 [45]: 2.18 µM (inactive)
- GI50 [46]: 2.46 µM (inactive)
- GI50 [47]: 23.2 µM (inactive)
- GI50 [48]: 22.1 µM (inactive)
- GI50 [49]: 1.67 µM (inactive)
- GI50 [50]: 2.32 µM (inactive)
- GI50 [51]: 8.47 µM (inactive)
- GI50 [52]: 20.6 µM (inactive)
- GI50 [53]: 1 µM (active)
- GI50 [54]: 15.6 µM (inactive)
- GI50 [55]: 16.8 µM (inactive)
- GI50 [56]: 1.76 µM (inactive)
- GI50 [57]: 22.7 µM (inactive)
- GI50 [58]: 3.54 µM (inactive)

Compound: O=C1NC(O)CCN1C1CC(O)C(CO)O1 (centres undefined)
- GI50 [1]: > 100 µM (inactive)
- GI50 [2]: > 100 µM (inactive)
- GI50 [3]: > 100 µM (inactive)
- GI50 [4]: > 100 µM (inactive)
- GI50 [5]: > 100 µM (inactive)
- GI50 [6]: > 100 µM (inactive)
- GI50 [7]: > 100 µM (inactive)
- GI50 [8]: > 100 µM (inactive)
- GI50 [9]: > 100 µM (inactive)
- GI50 [10]: > 100 µM (inactive)
- GI50 [11]: 74.1 µM (inactive)
- GI50 [12]: > 100 µM (inactive)
- GI50 [13]: > 100 µM (inactive)
- GI50 [14]: > 100 µM (inactive)
- GI50 [15]: > 100 µM (inactive)
- GI50 [16]: > 100 µM (inactive)
- GI50 [17]: > 100 µM (inactive)
- GI50 [18]: > 100 µM (inactive)
- GI50 [19]: > 100 µM (inactive)
- GI50 [20]: > 100 µM (inactive)
- GI50 [21]: > 100 µM (inactive)
- GI50 [22]: > 100 µM (inactive)
- GI50 [23]: > 100 µM (inactive)
- GI50 [24]: > 100 µM (inactive)
- GI50 [25]: > 100 µM (inactive)
- GI50 [26]: > 100 µM (inactive)
- GI50 [27]: > 100 µM (inactive)
- GI50 [28]: > 100 µM (inactive)
- GI50 [30]: > 100 µM (inactive)
- GI50 [31]: > 100 µM (inactive)
- GI50 [32]: > 100 µM (inactive)
- GI50 [35]: > 100 µM (inactive)
- GI50 [36]: > 100 µM (inactive)
- GI50 [37]: > 100 µM (inactive)
- GI50 [38]: > 100 µM (inactive)
- GI50 [39]: > 100 µM
- GI50 [40]: > 100 µM (inactive)
- GI50 [41]: > 100 µM (inactive)
- GI50 [42]: > 100 µM (inactive)
- GI50 [43]: > 100 µM (inactive)
- GI50 [44]: > 100 µM (inactive)
- GI50 [45]: > 100 µM (inactive)
- GI50 [59]: > 100 µM (inactive)
- GI50 [46]: > 100 µM (inactive)
- GI50 [47]: > 100 µM (inactive)
- GI50 [48]: > 100 µM (inactive)
- GI50 [49]: > 100 µM (inactive)
- GI50 [50]: > 100 µM (inactive)
- GI50 [51]: > 100 µM (inactive)
- GI50 [52]: > 100 µM (inactive)
- GI50 [53]: > 100 µM (inactive)
- GI50 [54]: > 100 µM (inactive)
- GI50 [55]: > 100 µM (inactive)
- GI50 [56]: > 100 µM (inactive)
- GI50 [57]: > 100 µM (inactive)
- GI50 [58]: > 100 µM (inactive)
